Article PMC11842588, “A first-in-class selective inhibitor of ERK1/2 and ERK5 overcomes drug resistance with a single-molecule strategy” (Signal Transduction and Targeted Therapy, 2025)

How the values were obtained:
Assay in all cases: Kinase profiling
Type in all cases: biochemical
[1] = molecular target: T1, CDK4/cyclinD3(h) (Homo sapiens, UniProt P11802)
T1 construct: purchased Eurofins Cerep SA (KinaseProfiler)
Method: (§1) 380 kinases inhibitory activities of SKLB-D18 were conducted by Eurofins Cerep SA. The result was illustrated by kinase tree (http://www.kinhub.org/kinmap/).

[2] = molecular target: T2, IRE1(h) (Homo sapiens, UniProt O75460)
T2 construct: purchased Eurofins Cerep SA (KinaseProfiler)
Method: as §1

[3] = molecular target: T3, TAO1(h) (Homo sapiens, UniProt Q7L7X3)
T3 construct: purchased Eurofins Cerep SA (KinaseProfiler)
Method: as §1

[4] = molecular target: T4, PIP4K2a(h) (Homo sapiens, UniProt P48426)
T4 construct: purchased Eurofins Cerep SA (KinaseProfiler)
Method: as §1

[5] = molecular target: T5, PASK(h) (Homo sapiens, UniProt Q96RG2)
T5 construct: purchased Eurofins Cerep SA (KinaseProfiler)
Method: as §1

[6] = molecular target: T6, PKD3(h) (Homo sapiens, UniProt O94806)
T6 construct: purchased Eurofins Cerep SA (KinaseProfiler)
Method: as §1

[7] = molecular target: T7, TSSK3(h) (Homo sapiens, UniProt Q96PN8)
T7 construct: purchased Eurofins Cerep SA (KinaseProfiler)
Method: as §1

[8] = molecular target: T8, ATM(h) (Homo sapiens, UniProt Q13315)
T8 construct: purchased Eurofins Cerep SA (KinaseProfiler)
Method: as §1

[9] = molecular target: T9, NEK3(h) (Homo sapiens, UniProt P51956)
T9 construct: purchased Eurofins Cerep SA (KinaseProfiler)
Method: as §1

[10] = molecular target: T10, ULK2(h) (Homo sapiens, UniProt Q8IYT8)
T10 construct: purchased Eurofins Cerep SA (KinaseProfiler)
Method: as §1

[11] = molecular target: T11, Mnk2(h) (Homo sapiens, UniProt Q9HBH9)
T11 construct: purchased Eurofins Cerep SA (KinaseProfiler)
Method: as §1

[12] = molecular target: T12, PDGFRα(h) (Homo sapiens, UniProt P16234)
T12 construct: purchased Eurofins Cerep SA (KinaseProfiler)
Method: as §1

[13] = molecular target: T13, PRAK(h) (Homo sapiens, UniProt Q8IW41)
T13 construct: purchased Eurofins Cerep SA (KinaseProfiler)
Method: as §1

[14] = molecular target: T14, JNK1α1(h) (Homo sapiens, UniProt P45983)
T14 construct: purchased Eurofins Cerep SA (KinaseProfiler)
Method: as §1

[15] = molecular target: T15, CDKL4(h) (Homo sapiens, UniProt Q5MAI5)
T15 construct: purchased Eurofins Cerep SA (KinaseProfiler)
Method: as §1

[16] = molecular target: T16, MSK2(h) (Homo sapiens, UniProt O75676)
T16 construct: purchased Eurofins Cerep SA (KinaseProfiler)
Method: as §1

[17] = molecular target: T17, EphA8(h) (Homo sapiens, UniProt P29322)
T17 construct: purchased Eurofins Cerep SA (KinaseProfiler)
Method: as §1

[18] = molecular target: T18, TLK2(h) (Homo sapiens, UniProt Q86UE8)
T18 construct: purchased Eurofins Cerep SA (KinaseProfiler)
Method: as §1

[19] = molecular target: T19, DYRK3(h) (Homo sapiens, UniProt O43781)
T19 construct: purchased Eurofins Cerep SA (KinaseProfiler)
Method: as §1

[20] = molecular target: T20, PAK2(h) (Homo sapiens, UniProt Q13177)
T20 construct: purchased Eurofins Cerep SA (KinaseProfiler)
Method: as §1

[21] = molecular target: T21, TAK1(h) (Homo sapiens, UniProt O43318)
T21 construct: purchased Eurofins Cerep SA (KinaseProfiler)
Method: as §1

[22] = molecular target: T22, FGFR4(h) (Homo sapiens, UniProt P22455)
T22 construct: purchased Eurofins Cerep SA (KinaseProfiler)
Method: as §1

[23] = molecular target: T23, Cdc7/cyclinB1(h) (Homo sapiens, UniProt O00311)
T23 construct: purchased Eurofins Cerep SA (KinaseProfiler)
Method: as §1

[24] = molecular target: T24, PRK2(h) (Homo sapiens, UniProt Q16513)
T24 construct: purchased Eurofins Cerep SA (KinaseProfiler)
Method: as §1

[25] = molecular target: T25, PKG1α(h) (Homo sapiens, UniProt Q13976)
T25 construct: purchased Eurofins Cerep SA (KinaseProfiler)
Method: as §1

[26] = molecular target: T26, PKCβII(h) (Homo sapiens, UniProt P05771)
T26 construct: purchased Eurofins Cerep SA (KinaseProfiler)
Method: as §1

[27] = molecular target: T27, ROCK-I(h) (Homo sapiens, UniProt Q13464)
T27 construct: purchased Eurofins Cerep SA (KinaseProfiler)
Method: as §1

[28] = molecular target: T28, Bmx(h) (Homo sapiens, UniProt P51813)
T28 construct: purchased Eurofins Cerep SA (KinaseProfiler)
Method: as §1

[29] = molecular target: T29, CaMKIV(h) (Homo sapiens, UniProt Q16566)
T29 construct: purchased Eurofins Cerep SA (KinaseProfiler)
Method: as §1

[30] = molecular target: T30, PKBγ(h) (Homo sapiens, UniProt Q9Y243)
T30 construct: purchased Eurofins Cerep SA (KinaseProfiler)
Method: as §1

[31] = molecular target: T31, DCAMKL2(h) (Homo sapiens, UniProt Q8N568)
T31 construct: purchased Eurofins Cerep SA (KinaseProfiler)
Method: as §1

[32] = molecular target: T32, ICK(h) (Homo sapiens, UniProt Q9UPZ9)
T32 construct: purchased Eurofins Cerep SA (KinaseProfiler)
Method: as §1

[33] = molecular target: T33, PKCι(h) (Homo sapiens, UniProt P41743)
T33 construct: purchased Eurofins Cerep SA (KinaseProfiler)
Method: as §1

[34] = molecular target: T34, NDR1(h) (Homo sapiens, UniProt Q15208)
T34 construct: purchased Eurofins Cerep SA (KinaseProfiler)
Method: as §1

[35] = molecular target: T35, CaMKIIγ(h) (Homo sapiens, UniProt Q13555)
T35 construct: purchased Eurofins Cerep SA (KinaseProfiler)
Method: as §1

[36] = molecular target: T36, GAK(h) (Homo sapiens, UniProt O14976)
T36 construct: purchased Eurofins Cerep SA (KinaseProfiler)
Method: as §1

[37] = molecular target: T37, CaMKIIα(h) (Homo sapiens, UniProt Q9UQM7)
T37 construct: purchased Eurofins Cerep SA (KinaseProfiler)
Method: as §1

[38] = molecular target: T38, Lyn(h) (Homo sapiens, UniProt P07948)
T38 construct: purchased Eurofins Cerep SA (KinaseProfiler)
Method: as §1

[39] = molecular target: T39, SGK3(h) (Homo sapiens, UniProt Q96BR1)
T39 construct: purchased Eurofins Cerep SA (KinaseProfiler)
Method: as §1

[40] = molecular target: T40, DAPK2(h) (Homo sapiens, UniProt Q9UIK4)
T40 construct: purchased Eurofins Cerep SA (KinaseProfiler)
Method: as §1

[41] = molecular target: T41, Fyn(h) (Homo sapiens, UniProt P06241)
T41 construct: purchased Eurofins Cerep SA (KinaseProfiler)
Method: as §1

T22 sequence (P22455 22-802): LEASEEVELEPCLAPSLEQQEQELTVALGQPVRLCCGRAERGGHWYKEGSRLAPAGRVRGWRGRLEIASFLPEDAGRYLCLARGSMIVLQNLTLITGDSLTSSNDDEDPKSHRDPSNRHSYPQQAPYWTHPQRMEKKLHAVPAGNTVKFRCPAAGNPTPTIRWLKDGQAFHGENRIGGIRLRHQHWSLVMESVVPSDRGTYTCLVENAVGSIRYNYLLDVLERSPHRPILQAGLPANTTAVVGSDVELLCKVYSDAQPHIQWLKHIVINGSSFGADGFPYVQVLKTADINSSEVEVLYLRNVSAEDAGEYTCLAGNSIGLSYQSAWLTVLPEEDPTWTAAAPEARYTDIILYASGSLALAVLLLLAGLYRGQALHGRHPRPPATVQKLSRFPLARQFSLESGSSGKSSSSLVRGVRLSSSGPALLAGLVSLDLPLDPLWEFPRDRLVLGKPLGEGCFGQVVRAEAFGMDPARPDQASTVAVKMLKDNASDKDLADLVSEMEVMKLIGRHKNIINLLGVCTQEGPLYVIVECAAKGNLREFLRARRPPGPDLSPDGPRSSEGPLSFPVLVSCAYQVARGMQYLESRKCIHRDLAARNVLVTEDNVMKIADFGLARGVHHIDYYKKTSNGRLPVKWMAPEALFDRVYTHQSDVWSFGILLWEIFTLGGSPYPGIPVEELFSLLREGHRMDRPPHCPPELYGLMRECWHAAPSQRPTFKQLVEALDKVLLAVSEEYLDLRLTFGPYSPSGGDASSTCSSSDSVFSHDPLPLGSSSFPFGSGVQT
T13 sequence (Q8IW41 whole entry): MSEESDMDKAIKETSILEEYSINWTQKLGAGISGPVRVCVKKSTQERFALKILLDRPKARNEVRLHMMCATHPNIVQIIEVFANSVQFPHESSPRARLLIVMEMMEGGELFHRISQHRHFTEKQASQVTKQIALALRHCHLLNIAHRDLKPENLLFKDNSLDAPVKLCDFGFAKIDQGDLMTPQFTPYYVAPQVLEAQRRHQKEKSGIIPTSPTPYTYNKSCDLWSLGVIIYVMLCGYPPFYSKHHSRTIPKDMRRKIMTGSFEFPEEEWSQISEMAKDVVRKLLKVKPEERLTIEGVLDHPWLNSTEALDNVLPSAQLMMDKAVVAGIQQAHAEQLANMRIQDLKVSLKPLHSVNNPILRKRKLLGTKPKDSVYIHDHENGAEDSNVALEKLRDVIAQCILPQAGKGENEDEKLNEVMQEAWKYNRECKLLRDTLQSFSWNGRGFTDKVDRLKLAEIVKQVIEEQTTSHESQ
T14 sequence (P45983 1-384 isoform P45983-2): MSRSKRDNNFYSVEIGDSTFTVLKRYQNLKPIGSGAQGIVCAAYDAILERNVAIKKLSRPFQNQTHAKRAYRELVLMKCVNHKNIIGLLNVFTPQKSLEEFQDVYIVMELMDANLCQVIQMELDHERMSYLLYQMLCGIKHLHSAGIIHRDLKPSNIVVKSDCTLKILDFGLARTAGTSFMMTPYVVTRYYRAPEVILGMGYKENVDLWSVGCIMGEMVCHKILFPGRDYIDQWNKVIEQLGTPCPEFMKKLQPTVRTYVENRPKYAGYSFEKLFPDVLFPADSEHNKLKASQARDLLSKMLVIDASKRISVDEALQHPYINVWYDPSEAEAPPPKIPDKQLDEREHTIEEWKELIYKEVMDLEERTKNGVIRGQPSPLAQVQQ
T4 sequence (P48426 whole entry): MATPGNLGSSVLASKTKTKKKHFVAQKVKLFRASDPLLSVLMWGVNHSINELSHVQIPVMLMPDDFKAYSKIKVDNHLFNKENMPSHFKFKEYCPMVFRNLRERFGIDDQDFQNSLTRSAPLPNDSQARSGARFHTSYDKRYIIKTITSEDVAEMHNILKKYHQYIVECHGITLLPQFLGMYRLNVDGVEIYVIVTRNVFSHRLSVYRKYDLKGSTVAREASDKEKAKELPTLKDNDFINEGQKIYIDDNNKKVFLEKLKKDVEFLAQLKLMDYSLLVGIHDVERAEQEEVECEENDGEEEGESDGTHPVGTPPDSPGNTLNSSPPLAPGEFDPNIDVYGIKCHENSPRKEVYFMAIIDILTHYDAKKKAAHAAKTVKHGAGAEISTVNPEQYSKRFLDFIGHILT
T1 sequence (P11802 whole entry): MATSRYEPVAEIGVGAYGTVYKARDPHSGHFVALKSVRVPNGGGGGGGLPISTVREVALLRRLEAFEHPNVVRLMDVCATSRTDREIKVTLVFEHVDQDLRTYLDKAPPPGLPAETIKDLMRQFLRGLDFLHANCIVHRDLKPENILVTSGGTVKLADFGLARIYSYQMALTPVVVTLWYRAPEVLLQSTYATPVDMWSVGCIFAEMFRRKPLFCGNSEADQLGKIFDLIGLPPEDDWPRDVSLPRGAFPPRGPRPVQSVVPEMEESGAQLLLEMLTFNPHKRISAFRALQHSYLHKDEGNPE
T1 sequence (P30281 whole entry partner): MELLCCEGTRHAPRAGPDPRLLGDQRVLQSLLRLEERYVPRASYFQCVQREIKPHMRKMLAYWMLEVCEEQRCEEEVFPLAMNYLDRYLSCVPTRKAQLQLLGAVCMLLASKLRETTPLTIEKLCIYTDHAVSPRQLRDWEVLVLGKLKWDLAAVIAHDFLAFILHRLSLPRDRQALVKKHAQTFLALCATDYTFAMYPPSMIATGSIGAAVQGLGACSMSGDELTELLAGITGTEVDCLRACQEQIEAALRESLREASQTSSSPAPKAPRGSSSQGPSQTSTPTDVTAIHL
T29 sequence (Q16566 whole entry): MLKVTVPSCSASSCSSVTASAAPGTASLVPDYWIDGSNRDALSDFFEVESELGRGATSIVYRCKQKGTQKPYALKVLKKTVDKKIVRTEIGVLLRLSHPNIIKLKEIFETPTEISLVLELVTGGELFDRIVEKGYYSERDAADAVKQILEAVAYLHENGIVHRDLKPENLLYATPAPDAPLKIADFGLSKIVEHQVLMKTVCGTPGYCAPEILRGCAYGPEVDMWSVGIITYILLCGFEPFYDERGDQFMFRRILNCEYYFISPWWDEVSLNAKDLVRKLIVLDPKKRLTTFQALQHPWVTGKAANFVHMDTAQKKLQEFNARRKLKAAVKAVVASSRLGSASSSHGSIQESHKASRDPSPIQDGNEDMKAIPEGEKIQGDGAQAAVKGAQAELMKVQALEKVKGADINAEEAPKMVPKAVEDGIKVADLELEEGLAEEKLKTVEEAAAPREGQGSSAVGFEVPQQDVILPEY
T10 sequence (Q8IYT8 whole entry): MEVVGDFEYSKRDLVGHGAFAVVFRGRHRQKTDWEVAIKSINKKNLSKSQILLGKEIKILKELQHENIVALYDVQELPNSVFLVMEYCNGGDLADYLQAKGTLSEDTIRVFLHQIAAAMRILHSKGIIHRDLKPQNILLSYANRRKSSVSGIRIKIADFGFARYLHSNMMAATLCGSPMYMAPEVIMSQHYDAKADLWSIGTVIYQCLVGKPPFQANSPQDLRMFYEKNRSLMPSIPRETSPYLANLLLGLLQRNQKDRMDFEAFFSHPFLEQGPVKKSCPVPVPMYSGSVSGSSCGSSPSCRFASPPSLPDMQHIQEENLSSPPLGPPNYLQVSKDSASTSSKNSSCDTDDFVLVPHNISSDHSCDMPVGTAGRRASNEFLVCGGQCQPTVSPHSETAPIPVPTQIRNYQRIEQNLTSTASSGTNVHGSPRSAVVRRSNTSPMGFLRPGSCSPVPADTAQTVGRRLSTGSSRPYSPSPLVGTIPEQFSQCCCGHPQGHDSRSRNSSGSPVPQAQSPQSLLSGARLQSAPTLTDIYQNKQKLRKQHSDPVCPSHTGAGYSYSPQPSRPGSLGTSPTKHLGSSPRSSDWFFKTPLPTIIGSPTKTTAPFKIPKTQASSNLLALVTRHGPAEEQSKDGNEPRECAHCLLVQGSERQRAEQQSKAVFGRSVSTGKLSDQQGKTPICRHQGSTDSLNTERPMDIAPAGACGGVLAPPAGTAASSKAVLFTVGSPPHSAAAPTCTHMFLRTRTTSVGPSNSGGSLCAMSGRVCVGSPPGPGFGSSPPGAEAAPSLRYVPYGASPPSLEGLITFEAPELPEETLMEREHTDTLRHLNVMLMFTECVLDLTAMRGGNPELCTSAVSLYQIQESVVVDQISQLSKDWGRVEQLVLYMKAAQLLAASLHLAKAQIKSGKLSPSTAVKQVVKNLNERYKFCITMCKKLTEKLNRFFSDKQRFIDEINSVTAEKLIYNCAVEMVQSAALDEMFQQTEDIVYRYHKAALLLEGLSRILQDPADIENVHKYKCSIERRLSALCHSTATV
T20 sequence (Q13177 whole entry): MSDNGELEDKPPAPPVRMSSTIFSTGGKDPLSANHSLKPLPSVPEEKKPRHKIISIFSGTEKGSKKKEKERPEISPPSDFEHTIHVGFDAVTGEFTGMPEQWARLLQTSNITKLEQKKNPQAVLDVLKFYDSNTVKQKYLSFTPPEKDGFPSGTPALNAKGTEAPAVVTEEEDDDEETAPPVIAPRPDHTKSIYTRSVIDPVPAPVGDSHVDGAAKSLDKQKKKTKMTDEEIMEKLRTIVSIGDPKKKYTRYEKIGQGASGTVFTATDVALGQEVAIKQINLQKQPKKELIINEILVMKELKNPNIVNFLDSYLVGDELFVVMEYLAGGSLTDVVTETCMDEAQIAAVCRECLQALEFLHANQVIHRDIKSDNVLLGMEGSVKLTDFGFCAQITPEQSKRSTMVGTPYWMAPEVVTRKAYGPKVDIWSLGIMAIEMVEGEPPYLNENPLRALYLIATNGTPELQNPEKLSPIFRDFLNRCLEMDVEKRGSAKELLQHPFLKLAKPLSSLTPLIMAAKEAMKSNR
T21 sequence (O43318 1-303 limits assumed): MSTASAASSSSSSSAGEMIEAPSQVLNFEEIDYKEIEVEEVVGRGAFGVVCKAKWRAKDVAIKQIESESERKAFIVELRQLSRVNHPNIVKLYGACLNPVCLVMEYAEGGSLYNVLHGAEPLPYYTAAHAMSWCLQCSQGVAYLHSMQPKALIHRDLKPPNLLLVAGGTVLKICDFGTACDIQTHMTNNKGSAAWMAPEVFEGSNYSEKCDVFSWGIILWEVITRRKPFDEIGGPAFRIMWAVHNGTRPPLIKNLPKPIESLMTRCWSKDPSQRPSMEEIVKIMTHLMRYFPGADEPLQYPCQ

## CN(C)Cc1cccc(Nc2ncc(Cl)c(-c3csc(C(=O)NN4CCOCC4)c3)n2)c1 [SKLB-D18, 4-(5-chloro-2-((3-((dimethylamino)methyl)phenyl)amino)pyrimidin-4-yl)-N-morpholinothiophene-2-carboxamide]
[1]
  inhibition at 1 µM: 60%
[2]
  inhibition at 1 µM: 2%
[3]
  inhibition at 1 µM: 62%
[4]
  inhibition at 1 µM: -1%
[5]
  inhibition at 1 µM: 13%
[6]
  inhibition at 1 µM: 55%
[7]
  inhibition at 1 µM: 53%
[8]
  inhibition at 1 µM: 7%
[9]
  inhibition at 1 µM: 63%
[10]
  inhibition at 1 µM: 67%
[11]
  inhibition at 1 µM: 59%
[12]
  inhibition at 1 µM: 37%
[13]
  inhibition at 1 µM: -2%
[14]
  inhibition at 1 µM: 40%
[15]
  inhibition at 1 µM: 66%
[16]
  inhibition at 1 µM: 16%
[17]
  inhibition at 1 µM: 14%
[18]
  inhibition at 1 µM: 52%
[19]
  inhibition at 1 µM: 49%
[20]
  inhibition at 1 µM: 12%
[21]
  inhibition at 1 µM: 64%
[22]
  inhibition at 1 µM: 8%
[23]
  inhibition at 1 µM: 30%
[24]
  inhibition at 1 µM: 64%
[25]
  inhibition at 1 µM: 9%
[26]
  inhibition at 1 µM: 28%
[27]
  inhibition at 1 µM: 10%
[28]
  inhibition at 1 µM: 46%
[29]
  inhibition at 1 µM: 24%
[30]
  inhibition at 1 µM: 14%
[31]
  inhibition at 1 µM: 55%
[32]
  inhibition at 1 µM: 20%
[33]
  inhibition at 1 µM: 8%
[34]
  inhibition at 1 µM: 66%
[35]
  inhibition at 1 µM: 50%
[36]
  inhibition at 1 µM: 78%
[37]
  inhibition at 1 µM: -25%
[38]
  inhibition at 1 µM: 60%
[39]
  inhibition at 1 µM: 9%
[40]
  inhibition at 1 µM: 53%
[41]
  inhibition at 1 µM: 60%
